Patent publication US11958868B2, “Methods of using metal complexes to promote wound healing” (University of Macau, priority 2022, dated 2024)

Assays:
[1] = ICP-MS analysis of iridium in skin samples; format: in vivo; conditions: dosed STZ and HFD/STZ mice
[2] = test system: full-thickness skin wounds in high-fat diet-fed, streptozotocin-treated diabetic mice (HFD/STZ); conditions: 1.25 mg/kg i.p. every other day
Procedure: (§1) The db/db and age-matched wide-type (WT) mice were locally administered with vehicle (0.8% w/v Carbopol 974P NF in distilled water, pH 7.0) and 0.25 mg/mL complex 1a (mixed in 0.8% w/v Carbopol 974P NF in distilled water) every other day for 8 days, respectively (FIG. 4a). […] STZ mice were obtained by a single injection of high-dose streptozotocin (150 mg/kg) (Supplementary FIG. 10a). HFD/STZ mice were generated by 8 weeks high-fat diet feeding, followed by low-dose streptozotocin injection for 7 days (40 mg/kg/day) (Supplementary FIG. 11a). 3 days after streptozotocin injection, STZ or HFD/STZ mice with fasting blood glucose levels between 15 and 28 mmol/L were considered as diabetic mice and used in wound healing experiments. STZ and HFD/STZ mice were intraperitoneally injected with either vehicle (PEG 400: distilled water=6:4, v/v) or 1.25 mg/kg complex 1a every other day for 8 days, respectively.
(§2) In the wound healing experiment, two full-thickness skin lesions were excised in interscapular area of each mouse, and the wound area was monitored every other day.
(§3) Male db/db mice were purchased from the Model Animal Research Center of Nanjing University (Nanjing, China). Male C57BL/6J mice were purchased from the animal facility of Faculty of Health Sciences, University of Macau.

[3] = test system: full-thickness skin wounds in leptin-receptor deficient (db/db) diabetic mice; conditions: 0.25 mg/mL topical every other day
Procedure: as §1, §2, §3

[4] = test system: full-thickness skin wounds in streptozotocin-induced diabetic mice (STZ); experiment: Skin wound model in STZ diabetic mice, intraperitoneal; format: in vivo; conditions: 1.25 mg/kg i.p. every other day
Description: (§4) The mice were maintained for 3 days. […] All experiments complied with all relevant ethical regulations.
(§5) Mice were anesthetized by inhalation of 3% isoflurane.

[5] = test system: wound tissue of normal and diabetic mice; experiment: Wound tissue analysis (H&E, Masson's trichrome, laser doppler, CD31, Western blot, qRT-PCR) in normal and diabetic mice; format: in vivo
Description: (A) Timeline for in vivo experiments. (B) Image of representative wound (left) and wound closure rate (right) (n=5 mice). (C) H&E and Masson's trichrome staining of dorsal skin section and skin thickness from the top of the epidermis to the bottom of the dermis in mice after 8 days post-injury (n=4 mice). Scale bar=200 μm. (D) Laser doppler imager in dorsal skin: representative images were shown for each group (left) and baseline perfusion on back skin of mice (right) after 2 days post-injury (dotted line circle represents the wound bed in mice of each group and arrow represents perfusion intensity (n=5 mice). (E) CD31 and DAPI double staining in wound bed of mice after 8 days post-injury (n=4 mice). Scale bar=50 μm. Data are expressed as means±SD, P values were calculated using a one-way ANOVA with Tukey's multiple comparison test. #P<0.05, ##P<0.01 WT vs. db/db, *P<0.05, **P<0.01 1a vs. vehicle.
(A) Western blot analyses and quantitation of HIF-1α, VEGF, GLUT1, and EPO in wound tissue (n=3 mice). All proteins were normalized by β-actin. (B) The mRNA levels of HIF-1α target genes involved in wound healing were analyzed by qRT-PCR in wound tissues (n=5 mice). Data are expressed as means±SD, P values were calculated using a one-way ANOVA with Tukey's multiple comparison test. P<0.05, P<0.01 WT vs. db/db, *P<0.05, **P<0.01 1a vs. vehicle. S
The epithelial thickness of the regenerated skin in each group was compared using H&E staining and Masson's trichrome staining. […] One of the key processes related to wound healing is tissue angiogenesis.
After electrophoresis of protein samples (30 μg of total protein) on SDS-PAGE gels, the samples were transferred to a PVDF membrane and incubated at room temperature with blocking solution for 1 h. The membrane was treated with primary antibodies and incubated overnight at 4° C. After 1 h incubation with the secondary antibodies (Supplementary Table Sl), protein bands were visualized using ECL Western Blotting Detection Reagent (GE Healthcare).
After fixation in 4% paraformaldehyde, the skin samples were embedded in paraffin and sectioned ([…]). For histological evaluation, sections were deparaffinized and rehydrated followed by hematoxylin and eosin (H&E) and Masson's trichrome staining. For immunohistochemical staining of CD31, the wound tissue sections were deparaffinized and stained with CD31 antibody (1:1000; ABclonal, Cambridge, MA, USA). The slides were examined under ×400 magnification to identify the area with the highest vascular density, and five randomly high-power field areas of the highest microvessel density were selected for each section. The average was calculated as the microvessel density of this sample.

[6] = test system: full-thickness skin wounds in WT/NC mice; experiment: Skin wound model in normal (WT/NC) mice; format: in vivo
Description: as §4, §5

HIF-2a = experiment: Effect on HIF-2a level and activity; format: cell-based
[7] = test system: oxygen depletion, PHD inhibition, proteasomal inhibition; experiment: Alternative mechanisms of HIF activation (oxygen depletion, PHD inhibition, proteasomal inhibition)
VHL = VHL (Homo sapiens, UniProt P40337); experiment: Binding affinity to VHL compared with VH298; conditions: complex 1a vs VH298
[8] = normal and diabetic mice, 8 days post-injury

Sequence of VHL (P40337 whole entry): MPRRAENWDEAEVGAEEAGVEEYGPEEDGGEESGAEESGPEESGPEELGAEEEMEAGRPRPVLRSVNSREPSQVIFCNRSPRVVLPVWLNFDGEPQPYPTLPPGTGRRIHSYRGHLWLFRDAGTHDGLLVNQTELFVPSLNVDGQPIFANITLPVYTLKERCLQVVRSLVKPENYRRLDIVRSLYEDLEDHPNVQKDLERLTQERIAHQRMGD
Sequence of VHL (Q15370 whole entry partner): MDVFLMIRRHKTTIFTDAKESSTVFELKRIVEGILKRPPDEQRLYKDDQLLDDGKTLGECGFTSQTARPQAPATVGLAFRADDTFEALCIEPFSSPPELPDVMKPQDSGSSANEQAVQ
Sequence of VHL (Q15369 whole entry partner): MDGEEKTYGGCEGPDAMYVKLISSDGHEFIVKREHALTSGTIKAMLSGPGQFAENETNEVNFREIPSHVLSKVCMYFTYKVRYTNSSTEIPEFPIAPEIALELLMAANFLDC

## COc1cc[n+]2c3c1ccc1c(OC)cc[n+](c13)[Ir-3]213([c]2ccccc2-c2cccc[n+]21)[c]1ccccc1-c1cccc[n+]13.F[P-](F)(F)(F)(F)F [1a]
[1]
  Iridium in skin samples (ICP-MS): confirmed the presence of iridium in skin samples
[2]; 4 days post-injury
  Rate of wound closure, HFD/STZ mice, 4 days: 62%
[2]; 8 days post-injury
  Rate of wound closure, HFD/STZ mice, 8 days: 82%
[3]; 4 days post-injury
  Rate of wound closure, db/db mice, 4 days: about 28%
[3]; 8 days post-injury
  Rate of wound closure, db/db mice, 8 days: ~40%
[4]; 4 days post-injury
  Rate of wound closure, STZ mice, 4 days: 50%
[4]; 8 days post-injury
  Rate of wound closure, STZ mice, 8 days: 76%
[5]; WT/NC mice
  HIF-1α target genes in wound tissue, qRT-PCR, WT/NC mice: weaker effects
[5]; WT/NC, db/db, HFD/STZ and STZ groups, 8 days post-wounding, vs vehicle
  Expression of HIF-1α, VEGF, GLUT1 and EPO in wound tissue (Western blotting): significantly increased
[5]; diabetic mice
  HIF-1α target genes (HSP-90, VEGFR-1, SDF-1, SCF, Tie-2) in wound tissue, qRT-PCR, diabetic mice: also increased in the wound tissue of 1a-treated diabetic mice
[5]; normal and diabetic groups, 8 days post-injury
  Microvessel density in wound areas (CD31 immunostaining): significantly enhanced microvessel density
[5]; normal and diabetic mice, 2 days post-injury
  Skin blood flow rate (skin perfusion pressure test): remarkably increased skin blood flow rate
[5]; [8]
  Collagen deposition in wound areas: enhanced collagen deposition in wound areas
  Skin thickness (H&E, Masson's trichrome): increased skin thickness
[6]; NC, 1.25 mg/kg i.p., 4 days
  Rate of wound closure, NC mice, 4 days: ~65%
[6]; WT, 0.25 mg/mL topical, 4 days
  Rate of wound closure, WT mice, 4 days: about 64%
[6]; WT/NC, 8 days
  Wound closure, WT/NC mice, 8 days: almost complete wound closure
HIF-2a
  Level and activity of HIF-2a: no effect on the level and activity of HIF-2a
[7]
  Activation of HIF signaling via oxygen depletion, PHD inhibition and/or proteasomal inhibition: unlikely to activate HIF signaling via oxygen depletion, PHD inhibition, and/or proteasomal inhibition
VHL
  Binding affinity, lower than that of VH298: around 100 fold
